Literature values, collected in article doi:10.1101/2020.07.01.182659 (bioRxiv, 2020).

Tests used:
[1] = system: ACE2
[2] = system: opioid receptors
[3] = system: APJR

Substance	ACE2 activity on peptide (in words) [1]	Km [1]	kcat/Km [1]	loss of potency on removal of C-terminal lysine [2]	affinity to APJR (in words) [3]	decrease of potency after cleavage of C-terminal phenylalanine [3]
YGGFLRRIRPKL↓K [Dynorphin A 1–13]	good ACE2 substrate	< 10 µM	> 1e+06 M⁻¹ s⁻¹	90%	–	–
QRPRLSHKGPMP↓F [Apelin-13]	–	< 10 µM	> 1e+06 M⁻¹ s⁻¹	–	nanomolar affinity	2–5 fold
YPFVEP↓I [β–Casomorphin]	good ACE2 substrate	–	–	–	–	–
